Test results from patent US20240092835A1, “NOVEL PEPTIDES CAPABLE OF ALTERING NK CELL ACTIVITY” (Massachusetts Institute of Technology, priority 2022, published 2024).

Assays:
[1] = biological target: T1, HLA-E (Homo sapiens, UniProt P13747); experiment: HLA-E surface stabilization assay with RMA-S/HLA-E cells; type: cell-based; settings: 30 μM peptide, 16 hours, anti-HLA-E antibody
T1 construct: expressed in transfected cells; host or cells: RMA-S/HLA-E cells (antigen processing-defective lymphoma cell line)
Protocol: HLA-E surface expression was assessed by measuring geometric mean fluorescence intensity (GeoMFI) in RMA-S cells following immunofluorescence staining with an anti-HLA-E antibody (Table 14). Increased GeoMFI was indicative of increased HLA-E surface expression stability following novel peptide exposures (FIG. 3).

[2] = system: NKG2A+/NKG2C− NK cells; experiment: NK cell activation markers in NKG2A+/NKG2C- NK cells incubated with peptide and K562 expressing HLA-E (inhibition); type: cell-based, human; settings: for percentage of CCL3+ NK cells / percentage of CD107a+ NK cells / percentage of IFNG+ NK cells / percentage of TNF+ NK cells: NKG2A+/NKG2C- NK cells, K562/HLA-E
Protocol: (§1) A human immortalized myelogenous leukemia cell line (K562), which expresses HLA-E was incubated with novel peptides (Table 1) derived from the human proteome or human cytomegalovirus proteome. […] Controls assessments were also performed using NKG2A−/NKG2C− cells (Tables 10-13). Inhibition was indicated by a decrease in percent cells positive for cell surface markers, while activation was indicated by an increase in percent cells positive for cell surface markers.

[3] = system: NKG2A−/NKG2C− NK cells; experiment: NK cell activation markers in control NKG2A-/NKG2C- NK cells incubated with peptide and K562 expressing HLA-E; type: cell-based, human
Protocol: as §1

[4] = system: NKG2A−/NKG2C+ NK cells; experiment: NK cell activation markers in NKG2A-/NKG2C+ NK cells incubated with peptide and K562 expressing HLA-E (activation); type: cell-based, human; settings: for percentage of CCL3+ NK cells / percentage of CD107+ NK cells / percentage of IFNG+ NK cells / percentage of TNF+ NK cells: NKG2A-/NKG2C+ NK cells, K562/HLA-E
Protocol: as §1

[5] = K562 expressing HLA-E, CD107a, IFNG, TNF, CCL3

- HLA-E surface expression stability (GeoMFI) ([1]; Trial 1): 3152 GeoMFI
- HLA-E surface expression stability (GeoMFI) ([1]; Trial 2): 2914 GeoMFI
- HLA-E surface expression stability (GeoMFI) ([1]; Trial 3): 3432 GeoMFI
- HLA-E surface expression stability (GeoMFI) ([1]; Trial 4): 3610 GeoMFI
Sequence: VMPGRTLCF [human11, peptide TACR3 226-234 derived from the human proteome]
- effect on NKG2A+/NKG2C− NK cell inhibition (in words) [2, 5]: strong inhibitory
- percentage of CCL3+ NK cells ([2]; Trial 1): 4.05%
- percentage of CD107a+ NK cells ([2]; Trial 1): 0.35%
- percentage of IFNG+ NK cells ([2]; Trial 1): 0.13%
- percentage of TNF+ NK cells ([2]; Trial 1): 0.05%
- percentage of CCL3+ NK cells ([2]; Trial 2): 7.9%
- percentage of CD107a+ NK cells ([2]; Trial 2): 1.08%
- percentage of IFNG+ NK cells ([2]; Trial 2): 0.53%
- percentage of TNF+ NK cells ([2]; Trial 2): 0.21%
- percentage of CCL3+ NK cells ([2]; Trial 3): 3.93%
- percentage of CD107a+ NK cells ([2]; Trial 3): 1.25%
- percentage of IFNG+ NK cells ([2]; Trial 3): 0.6%
- percentage of TNF+ NK cells ([2]; Trial 3): 0.35%
- percentage of CCL3+ NK cells ([2]; Trial 4): 1.77%
- percentage of CD107a+ NK cells ([2]; Trial 4): 1.09%
- percentage of IFNG+ NK cells ([2]; Trial 4): 0.29%
- percentage of TNF+ NK cells ([2]; Trial 4): 0.23%
- percentage of CCL3+ NK cells ([2]; Trial 5): 2.68%
- percentage of CD107a+ NK cells ([2]; Trial 5): 0.66%
- percentage of IFNG+ NK cells ([2]; Trial 5): 0.09%
- percentage of TNF+ NK cells ([2]; Trial 5): 0%
- percentage of CCL3+ NK cells ([2]; Trial 6): 1.02%
- percentage of CD107a+ NK cells ([2]; Trial 6): 1.02%
- percentage of IFNG+ NK cells ([2]; Trial 6): 0.05%
- percentage of TNF+ NK cells ([2]; Trial 6): 0%
- percentage CCL3+ NK cells ([3]; Trial 1): 27.1%
- percentage CD107+ NK cells ([3]; Trial 1): 21.7%
- percentage TNF+ NK cells ([3]; Trial 1): 3.75%
- percentage of IFNG+ NK cells ([3]; Trial 1): 11.4%
- percentage CCL3+ NK cells ([3]; Trial 2): 49.5%
- percentage CD107+ NK cells ([3]; Trial 2): 28.7%
- percentage TNF+ NK cells ([3]; Trial 2): 7.72%
- percentage of IFNG+ NK cells ([3]; Trial 2): 21.3%
- percentage CCL3+ NK cells ([3]; Trial 3): 44.1%
- percentage CD107+ NK cells ([3]; Trial 3): 38.6%
- percentage TNF+ NK cells ([3]; Trial 3): 14.8%
- percentage of IFNG+ NK cells ([3]; Trial 3): 33.5%
- percentage CCL3+ NK cells ([3]; Trial 4): 30.9%
- percentage CD107+ NK cells ([3]; Trial 4): 28.9%
- percentage TNF+ NK cells ([3]; Trial 4): 9.48%
- percentage of IFNG+ NK cells ([3]; Trial 4): 18.5%
- percentage CCL3+ NK cells ([3]; Trial 5): 18.3%
- percentage CD107+ NK cells ([3]; Trial 5): 14.9%
- percentage TNF+ NK cells ([3]; Trial 5): 3.82%
- percentage of IFNG+ NK cells ([3]; Trial 5): 10.5%
- percentage CCL3+ NK cells ([3]; Trial 6): 13.7%
- percentage CD107+ NK cells ([3]; Trial 6): 14.8%
- percentage TNF+ NK cells ([3]; Trial 6): 2.69%
- percentage of IFNG+ NK cells ([3]; Trial 6): 6.09%
- effect on NKG2A−/NKG2C+ NK cell activation (in words) [4, 5]: strong activating effects
- percentage of CCL3+ NK cells ([4]; Trial 1): 72.1%
- percentage of CD107+ NK cells ([4]; Trial 1): 70.6%
- percentage of IFNG+ NK cells ([4]; Trial 1): 63.1%
- percentage of TNF+ NK cells ([4]; Trial 1): 57.2%
- percentage of CCL3+ NK cells ([4]; Trial 2): 83.5%
- percentage of CD107+ NK cells ([4]; Trial 2): 79.9%
- percentage of IFNG+ NK cells ([4]; Trial 2): 76.4%
- percentage of TNF+ NK cells ([4]; Trial 2): 71.3%
- percentage of CCL3+ NK cells ([4]; Trial 3): 80.8%
- percentage of CD107+ NK cells ([4]; Trial 3): 81%
- percentage of IFNG+ NK cells ([4]; Trial 3): 76.8%
- percentage of TNF+ NK cells ([4]; Trial 3): 72%
- percentage of CCL3+ NK cells ([4]; Trial 4): 65%
- percentage of CD107+ NK cells ([4]; Trial 4): 66.8%
- percentage of IFNG+ NK cells ([4]; Trial 4): 59.4%
- percentage of TNF+ NK cells ([4]; Trial 4): 53.6%
- percentage of CCL3+ NK cells ([4]; Trial 5): 69.8%
- percentage of CD107+ NK cells ([4]; Trial 5): 70.2%
- percentage of IFNG+ NK cells ([4]; Trial 5): 65%
- percentage of TNF+ NK cells ([4]; Trial 5): 62.5%
- percentage of CCL3+ NK cells ([4]; Trial 6): 39.9%
- percentage of CD107+ NK cells ([4]; Trial 6): 42.5%
- percentage of IFNG+ NK cells ([4]; Trial 6): 35.3%
- percentage of TNF+ NK cells ([4]; Trial 6): 33.5%
